The source made the active and inactive calls.
Legend:
[1] = THP-1 cell cytotoxicity, dose response, cytotoxicity control for non-replicating M. tuberculosis project (AID 489025); format: functional
INS1 = test: beta cell apoptosis inhibitors, cytokine rescue, dose response, luminescence, retest (AID 449756); format: functional, cell-based; details: Rattus norvegicus;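 note: cell death triggered by IL-1 beta plus TNF-alpha plus IFN-gamma mixture; protective hits raise ATP signal compared with cytokine alone wells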
Protein RecA = molecular target: T1, Protein RecA (Mycobacterium tuberculosis, UniProt P9WHJ3); test: Fluorescence Cell-Free Homogeneous Dose Retest to Identify Inhibitors of RecA-Intein Splicing Activity. [Related pubchem assays (depositor defined):AID2097, AID2223, AID489010, AID492950]; format: functional
T1 sequence (P9WHJ3 whole entry): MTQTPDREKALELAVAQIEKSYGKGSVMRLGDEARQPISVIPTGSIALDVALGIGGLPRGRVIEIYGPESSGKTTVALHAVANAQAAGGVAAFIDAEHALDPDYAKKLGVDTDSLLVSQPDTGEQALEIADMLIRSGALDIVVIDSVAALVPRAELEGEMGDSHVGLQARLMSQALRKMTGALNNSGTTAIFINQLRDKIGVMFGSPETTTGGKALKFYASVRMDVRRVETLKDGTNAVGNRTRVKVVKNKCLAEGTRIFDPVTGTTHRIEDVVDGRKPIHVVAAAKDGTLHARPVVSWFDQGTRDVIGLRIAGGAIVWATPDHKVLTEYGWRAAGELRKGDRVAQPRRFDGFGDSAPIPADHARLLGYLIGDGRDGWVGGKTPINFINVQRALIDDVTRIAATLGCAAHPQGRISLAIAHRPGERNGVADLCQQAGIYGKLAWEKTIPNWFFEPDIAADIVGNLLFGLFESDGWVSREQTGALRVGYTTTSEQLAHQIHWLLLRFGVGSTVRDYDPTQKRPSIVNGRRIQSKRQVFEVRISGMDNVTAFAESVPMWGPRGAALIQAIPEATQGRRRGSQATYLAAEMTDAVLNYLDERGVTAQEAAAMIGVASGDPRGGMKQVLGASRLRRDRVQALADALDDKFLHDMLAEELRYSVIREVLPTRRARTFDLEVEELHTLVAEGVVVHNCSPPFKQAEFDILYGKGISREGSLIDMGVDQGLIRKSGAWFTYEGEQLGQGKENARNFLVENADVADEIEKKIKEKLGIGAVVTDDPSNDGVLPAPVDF

Genome polyprotein = Genome polyprotein (dengue virus type 2, UniProt P29990); test: Dengue-2 NS5 methyltransferase inhibitors, primary screen, biochemical, confirmation dose response (AID 588689); format: functional
[2] = HepG2 cell cytotoxicity, dose response, cytotoxicity control for Shn3 inhibitor project, CellTiter-Glo, cherry-picked (AID 624134); format: functional, cell-based
[3] = control 3'UTR Renilla luciferase suppression, dose response, counter-screen for Shn3 inhibitor project, cell-based, Clone20-Shn3RL, cherry-picked (AID 624133); format: functional

Sequence of Genome polyprotein (P29990 2492-3391 limits assumed): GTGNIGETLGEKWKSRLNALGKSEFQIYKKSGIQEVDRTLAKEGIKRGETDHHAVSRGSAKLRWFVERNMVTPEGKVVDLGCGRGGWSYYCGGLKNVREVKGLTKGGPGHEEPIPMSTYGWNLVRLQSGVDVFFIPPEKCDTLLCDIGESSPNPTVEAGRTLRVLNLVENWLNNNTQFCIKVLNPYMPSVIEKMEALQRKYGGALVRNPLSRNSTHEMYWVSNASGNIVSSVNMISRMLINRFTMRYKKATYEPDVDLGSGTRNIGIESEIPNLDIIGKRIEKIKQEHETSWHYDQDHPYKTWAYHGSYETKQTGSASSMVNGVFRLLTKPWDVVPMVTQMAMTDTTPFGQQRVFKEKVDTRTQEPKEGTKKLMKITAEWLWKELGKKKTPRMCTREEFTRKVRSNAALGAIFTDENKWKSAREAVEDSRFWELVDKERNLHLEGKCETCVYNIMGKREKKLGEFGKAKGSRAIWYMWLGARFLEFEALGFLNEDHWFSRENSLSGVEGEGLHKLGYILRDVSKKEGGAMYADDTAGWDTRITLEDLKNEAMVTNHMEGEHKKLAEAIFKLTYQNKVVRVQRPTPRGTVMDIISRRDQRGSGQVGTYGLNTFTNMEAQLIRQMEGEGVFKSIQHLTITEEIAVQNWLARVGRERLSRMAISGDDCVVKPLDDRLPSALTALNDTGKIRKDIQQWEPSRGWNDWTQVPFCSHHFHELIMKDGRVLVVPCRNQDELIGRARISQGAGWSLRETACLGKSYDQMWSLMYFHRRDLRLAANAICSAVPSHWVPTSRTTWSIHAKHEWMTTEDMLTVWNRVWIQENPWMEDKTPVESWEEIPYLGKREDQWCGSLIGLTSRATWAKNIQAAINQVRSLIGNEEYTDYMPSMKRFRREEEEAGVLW

O=C(CNc1cccc2ccccc12)N/N=C/c1ccc([N+](=O)[O-])o1
active: CC50 [1] 16.8 µM | AC50 (INS1) 5.58 µM

Cc1ccc(NC(=O)C2=C(c3ccccc3)S(=O)(=O)CCS2(=O)=O)cc1
active: CC50 [1] 19.4 µM | EC50 (Protein RecA) 1.01 µM | AC50 (INS1) 6.54 µM | IC50 (Genome polyprotein) > 100 µM | AC50 [2] 12.5 µM | AC50 [3] 4.49 µM

O=C(O)CSc1cc(NS(=O)(=O)c2ccc(Br)cc2)c2ccccc2c1O
active: EC50 (Protein RecA) 0.244 µM | IC50 (Genome polyprotein) 7.66 µM

O=C(CC(O)(C(F)(F)F)C(F)(F)F)Nc1ccc(Cl)c(Cl)c1
active: AC50 (INS1) 2.44 µM | AC50 [2] 3.7 µM | AC50 [3] 5.67 µM

Reference: ChEMBL document CHEMBL1201862, “PubChem BioAssay data set” (2004)
